Numbered stars: 1 amine (or outer) side, 2 acyl side, 3 side chain; on linkers, the order of the positions; unused ones are H or OH. Bridge positions count the residues as written; N and C are the ends. Square brackets hold non-standard residues; d marks the D form. Peptide text beside a SMILES is read from it. X4 = O=C([C@H](CCCCNCc1ccccc1)N[*:1])[*:2]; sY = N[C@@H](Cc1ccc(OS(=O)(=O)O)cc1)C(=O)O; X3 = O=C([C@H](CCNCc1ccccc1)N[*:1])[*:2]; X2 = O=C([C@H](CNCc1ccccc1)N[*:1])[*:2]; Dap = NC[C@H](N)C(=O)O; βAla = NCCC(=O)O A value given as a limit tells only on which side of the number the result lay.

The first assay concerns the target T1, Cholecystokinin receptor type A (Homo sapiens, UniProt P32238).
T1 sequence (P32238 whole entry): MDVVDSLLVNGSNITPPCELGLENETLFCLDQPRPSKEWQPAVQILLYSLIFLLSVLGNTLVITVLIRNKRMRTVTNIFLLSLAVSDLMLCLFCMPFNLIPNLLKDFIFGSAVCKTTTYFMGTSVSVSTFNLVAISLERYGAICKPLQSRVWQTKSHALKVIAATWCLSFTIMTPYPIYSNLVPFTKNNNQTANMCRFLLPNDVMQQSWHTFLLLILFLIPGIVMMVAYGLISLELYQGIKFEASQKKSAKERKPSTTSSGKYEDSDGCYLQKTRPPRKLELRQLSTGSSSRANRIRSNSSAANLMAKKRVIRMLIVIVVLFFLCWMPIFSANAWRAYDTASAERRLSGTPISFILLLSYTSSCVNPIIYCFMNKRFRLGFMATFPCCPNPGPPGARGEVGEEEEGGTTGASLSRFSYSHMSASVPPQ
Briefly: Displacement of [111In]DTPA-Glu-Gly-[Tyr27(SO3H)]-CCK8 from human CCK1 receptor expressed in A431 cells. Type of assay: cell-based, A-431.
Settings: not given
Consider `CSCC[C@@H]1NC(=O)[C@H](Cc2c[nH]c3ccccc23)NC(=O)[C@@H](NC(=O)[C@H](CCSC)NC(=O)[C@H](Cc2ccc(OS(=O)(=O)O)cc2)NC(=O)[C@@H](N)CC(=O)O)CNC(=O)CNC(=O)[C@H](CCCCNCc2ccccc2)NC(=O)[C@H](CC(=O)O)NC1=O` (H-D[sY]M[Dap]WMD[X4]G; lactam 4-C), for which the IC50 turned out to be 24.7 µM. That is a double-digit micromolar value.

In turn, `CSCC[C@@H]1NC(=O)[C@H](Cc2c[nH]c3ccccc23)NC(=O)[C@@H](NC(=O)[C@H](CCSC)NC(=O)[C@H](Cc2ccc(OS(=O)(=O)O)cc2)NC(=O)[C@@H](N)CC(=O)O)CNC(=O)CCNC(=O)[C@H](Cc2ccccc2)NC(=O)[C@H](CC(=O)O)NC1=O` (H-D[sY]M[Dap]WMDF[βAla]; lactam 4-C) returned an IC50 of 26.7 µM. `CSCC[C@@H]1NC(=O)[C@H](Cc2c[nH]c3ccccc23)NC(=O)[C@@H](NC(=O)[C@H](CCSC)NC(=O)[C@H](Cc2ccc(OS(=O)(=O)O)cc2)NC(=O)[C@@H](N)CC(=O)O)CNC(=O)CNC(=O)[C@H](CCNCc2ccccc2)NC(=O)[C@H](CC(=O)O)NC1=O` (H-D[sY]M[Dap]WMD[X3]G; lactam 4-C) showed an IC50 of 6.94 µM.

For the molecule `CSCC[C@@H]1NC(=O)[C@H](Cc2c[nH]c3ccccc23)NC(=O)[C@@H](NC(=O)[C@H](CCSC)NC(=O)[C@H](Cc2ccc(OS(=O)(=O)O)cc2)NC(=O)[C@@H](N)CC(=O)O)CNC(=O)CNC(=O)[C@H](Cc2ccccc2)NC(=O)[C@H](CC(=O)O)NC1=O` (H-D[sY]M[Dap]WMDFG; lactam 4-C), the IC50 is 26.3 µM. For `CSCC[C@@H]1NC(=O)[C@H](Cc2c[nH]c3ccccc23)NC(=O)[C@@H](NC(=O)[C@H](CCSC)NC(=O)[C@H](Cc2ccc(OS(=O)(=O)O)cc2)NC(=O)[C@@H](N)CC(=O)O)CNC(=O)[C@H](CCCCN)NC(=O)[C@H](Cc2ccccc2)NC(=O)[C@H](CC(=O)O)NC1=O` (H-D[sY]M[Dap]WMDFK; lactam 4-C), the IC50 was determined as 15 µM. With `CSCC[C@@H]1NC(=O)[C@H](Cc2c[nH]c3ccccc23)NC(=O)[C@@H](NC(=O)[C@H](CCSC)NC(=O)[C@H](Cc2ccc(OS(=O)(=O)O)cc2)NC(=O)[C@@H](N)CC(=O)O)CNC(=O)CNC(=O)[C@H](CNCc2ccccc2)NC(=O)[C@H](CC(=O)O)NC1=O` (H-D[sY]M[Dap]WMD[X2]G; lactam 4-C), the IC50 was 7.46 µM. Take `CSCC[C@@H]1NC(=O)[C@H](Cc2c[nH]c3ccccc23)NC(=O)[C@@H](NC(=O)[C@H](CCSC)NC(=O)[C@H](Cc2ccc(OS(=O)(=O)O)cc2)NC(=O)[C@@H](N)CC(=O)O)CNC(=O)[C@H](C)NC(=O)[C@H](Cc2ccccc2)NC(=O)[C@H](CC(=O)O)NC1=O` (H-D[sY]M[Dap]WMDFA; lactam 4-C): the IC50 was > 1000 µM. Molecule `CSCC[C@@H]1NC(=O)[C@H](Cc2c[nH]c3ccccc23)NC(=O)[C@@H](NC(=O)[C@H](CCSC)NC(=O)[C@H](Cc2ccc(OS(=O)(=O)O)cc2)NC(=O)[C@@H](N)CC(=O)O)CNC(=O)CNC(=O)[C@H](C)NC(=O)[C@H](CC(=O)O)NC1=O` (H-D[sY]M[Dap]WMDAG; lactam 4-C) yielded an IC50 of 7.2 µM.

Still in this assay, the particulars now being: a-431.
`CSCC[C@H](NC(=O)[C@H](Cc1ccc(O)cc1)NC(=O)[C@H](CC(=O)O)NC(=O)CNC(=O)CC[C@@H](C(=O)O)N(CCN(CC(=O)O)CC(=O)O)CCN(CC(=O)O)CC(=O)O)C(=O)NCC(=O)N[C@@H](Cc1c[nH]c2ccccc12)C(=O)N[C@@H](CCSC)C(=O)N[C@@H](CC(=O)O)C(=O)N[C@@H](Cc1ccccc1)C(N)=O` registered an IC50 of 0.032 µM.

In general, IC50 refers to the concentration needed to halve the response being measured. Low readings indicate higher potency, high ones lower potency.

Source of the values: ChEMBL document CHEMBL1149620, “Synthesis and biological evaluation of cyclic and branched peptide analogues as ligands for cholecystokinin type 1 receptor” (Bioorg Med Chem, 2007).
